Columns and labels:
barley = experiment: Herbicidal bioassay, barley (% necrosis); type: in vivo
Summary of the method: (§1)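 Lolium perenne, barley, peas and Chinese cabbage at 2-4 true leaf stage sprayed simultaneously with a Potter tower, compounds in DMSO at six concentrations (0.05% to 0.0001%). Phytotoxicity scored as % necrosis per EPPO PP1/135 at set intervals; five replicates per treatment and species; DMSO and water controls.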

peas = experiment: Herbicidal bioassay, peas (% necrosis); type: in vivo
Summary of the method: as §1

CC(C=O)Oc1ccc(Oc2ccc(C(F)(F)F)cn2)cc1 (stereo not drawn) [Compound 28, 2-[4-[[5-(Trifluoromethyl)-2-pyridyl]oxy]phenoxy]propanal]
B (50%-80% necrosis): Sum of % necrosis in barley (barley; Dose 0.0001, Day 21) | Sum of % necrosis in Peas (peas; Dose 0.000001, Day 21) | Sum of % necrosis in Peas (peas; Dose 0.000005, Day 7) | Sum of % necrosis in Peas (peas; Dose 0.000005, Day 10) | Sum of % necrosis in Peas (peas; Dose 0.000005, Day 14) | Sum of % necrosis in Peas (peas; Dose 0.0005, Day 7) | Sum of % necrosis in Peas (peas; Dose 0.0005, Day 10)
C (less than 50% necrosis): Sum of % necrosis in barley (barley; Dose 0.000001, Day 0) | Sum of % necrosis in barley (barley; Dose 0.000001, Day 1) | Sum of % necrosis in barley (barley; Dose 0.000001, Day 3) | Sum of % necrosis in barley (barley; Dose 0.000001, Day 7) | Sum of % necrosis in barley (barley; Dose 0.000001, Day 10) | Sum of % necrosis in barley (barley; Dose 0.000001, Day 14) | Sum of % necrosis in barley (barley; Dose 0.000001, Day 21) | Sum of % necrosis in barley (barley; Dose 0.000005, Day 0) | Sum of % necrosis in barley (barley; Dose 0.000005, Day 1) | Sum of % necrosis in barley (barley; Dose 0.000005, Day 3) | Sum of % necrosis in barley (barley; Dose 0.000005, Day 7) | Sum of % necrosis in barley (barley; Dose 0.000005, Day 10) | Sum of % necrosis in barley (barley; Dose 0.000005, Day 14) | Sum of % necrosis in barley (barley; Dose 0.000005, Day 21) | Sum of % necrosis in barley (barley; Dose 0.00001, Day 0) | Sum of % necrosis in barley (barley; Dose 0.00001, Day 1) | Sum of % necrosis in barley (barley; Dose 0.00001, Day 3) | Sum of % necrosis in barley (barley; Dose 0.00001, Day 7) | Sum of % necrosis in barley (barley; Dose 0.00001, Day 10) | Sum of % necrosis in barley (barley; Dose 0.00001, Day 14) | Sum of % necrosis in barley (barley; Dose 0.00001, Day 21) | Sum of % necrosis in barley (barley; Dose 0.00005, Day 0) | Sum of % necrosis in barley (barley; Dose 0.00005, Day 1) | Sum of % necrosis in barley (barley; Dose 0.00005, Day 3) | Sum of % necrosis in barley (barley; Dose 0.00005, Day 7) | Sum of % necrosis in barley (barley; Dose 0.00005, Day 10) | Sum of % necrosis in barley (barley; Dose 0.00005, Day 14) | Sum of % necrosis in barley (barley; Dose 0.00005, Day 21) | Sum of % necrosis in barley (barley; Dose 0.0001, Day 0) | Sum of % necrosis in barley (barley; Dose 0.0001, Day 1) | Sum of % necrosis in barley (barley; Dose 0.0001, Day 3) | Sum of % necrosis in barley (barley; Dose 0.0001, Day 7) | Sum of % necrosis in barley (barley; Dose 0.0001, Day 10) | Sum of % necrosis in barley (barley; Dose 0.0001, Day 14) | Sum of % necrosis in barley (barley; Dose 0.0005, Day 0) | Sum of % necrosis in barley (barley; Dose 0.0005, Day 1) | Sum of % necrosis in barley (barley; Dose 0.0005, Day 3) | Sum of % necrosis in barley (barley; Dose 0.0005, Day 7) | Sum of % necrosis in barley (barley; Dose 0.0005, Day 10) | Sum of % necrosis in barley (barley; Dose 0.0005, Day 14) | Sum of % necrosis in Peas (peas; Dose 0.000001, Day 0) | Sum of % necrosis in Peas (peas; Dose 0.000001, Day 1) | Sum of % necrosis in Peas (peas; Dose 0.000001, Day 3) | Sum of % necrosis in Peas (peas; Dose 0.000001, Day 7) | Sum of % necrosis in Peas (peas; Dose 0.000001, Day 10) | Sum of % necrosis in Peas (peas; Dose 0.000001, Day 14) | Sum of % necrosis in Peas (peas; Dose 0.000005, Day 0) | Sum of % necrosis in Peas (peas; Dose 0.000005, Day 1) | Sum of % necrosis in Peas (peas; Dose 0.000005, Day 3) | Sum of % necrosis in Peas (peas; Dose 0.00001, Day 0) | Sum of % necrosis in Peas (peas; Dose 0.00001, Day 1) | Sum of % necrosis in Peas (peas; Dose 0.00001, Day 3) | Sum of % necrosis in Peas (peas; Dose 0.00001, Day 7) | Sum of % necrosis in Peas (peas; Dose 0.00001, Day 10) | Sum of % necrosis in Peas (peas; Dose 0.00005, Day 0) | Sum of % necrosis in Peas (peas; Dose 0.00005, Day 1) | Sum of % necrosis in Peas (peas; Dose 0.00005, Day 3) | Sum of % necrosis in Peas (peas; Dose 0.00005, Day 7) | Sum of % necrosis in Peas (peas; Dose 0.00005, Day 10) | Sum of % necrosis in Peas (peas; Dose 0.0001, Day 0) | Sum of % necrosis in Peas (peas; Dose 0.0001, Day 1) | Sum of % necrosis in Peas (peas; Dose 0.0001, Day 3) | Sum of % necrosis in Peas (peas; Dose 0.0001, Day 7) | Sum of % necrosis in Peas (peas; Dose 0.0001, Day 10) | Sum of % necrosis in Peas (peas; Dose 0.0005, Day 0) | Sum of % necrosis in Peas (peas; Dose 0.0005, Day 1) | Sum of % necrosis in Peas (peas; Dose 0.0005, Day 3)
A (over 80% necrosis): Sum of % necrosis in barley (barley; Dose 0.0005, Day 21) | Sum of % necrosis in Peas (peas; Dose 0.000005, Day 21) | Sum of % necrosis in Peas (peas; Dose 0.00001, Day 14) | Sum of % necrosis in Peas (peas; Dose 0.00001, Day 21) | Sum of % necrosis in Peas (peas; Dose 0.00005, Day 14) | Sum of % necrosis in Peas (peas; Dose 0.00005, Day 21) | Sum of % necrosis in Peas (peas; Dose 0.0001, Day 14) | Sum of % necrosis in Peas (peas; Dose 0.0001, Day 21) | Sum of % necrosis in Peas (peas; Dose 0.0005, Day 14) | Sum of % necrosis in Peas (peas; Dose 0.0005, Day 21)

— patent US20150094474A1, “AGRICULTURAL CHEMICALS” (Redx Pharma Ltd., priority 2012, published 2015)
